Earlier results on three molecules are cited in patent publication US20210308030A1, “SYSTEM, METHODS AND KITS FOR DIAGNOSIS AND TREATMENT OF FEMALE PATTERN HAIR LOSS” (Follea International, priority 2020, published 2021).

The test system of one data set is FPHL patients. Conditions: both 2% and 5% minoxidil.

For the molecule `O=c1c(-c2ccc(O)cc2)coc2cc(O)ccc12` [daidzein], the water solubility result is “poor”.

As for `O=c1c(-c2ccc(O)cc2)coc2cc(O)cc(O)c12` [genistein], the water solubility result is “poor”.

In the case of `Nc1cc(N2CCCCC2)nc(N)[n+]1[O-]` [minoxidil], the “risk for adverse events” value with FPHL patients was “low”.
